Reference: patent US11964052B2, “Lipid compounds and lipid nanoparticle compositions” (SUZHOU ABOGEN BIOSCIENCES CO., LTD., priority 2021, dated 2024)

Key:
Format in all cases: physicochemical
[1] = Encapsulation efficiency of lipid nanoparticles, Quant-it Ribogreen RNA quantification assay; settings: LNP with mRNA
Procedure: (§1) Briefly, a cationic lipid provided herein, DSPC, cholesterol, and PEG-lipid were solubilized in ethanol at a molar ratio of 50:10:38.5:1.5, and mRNA were diluted in 10 to 50 mM citrate buffer, pH=4. The LNPs were prepared at a total lipid to mRNA weight ratio of approximately 10:1 to 30:1 by mixing the ethanolic lipid solution with the aqueous mRNA solution at a volume ratio of 1:3 using a microfluidic apparatus, total flow rate ranging from 9-30 mL/min. Ethanol were thereby removed and replaced by DPBS using dialysis. Finally, the lipid nanoparticles were filtered through a 0.2 μm sterile filter.
(§2) Lipid nanoparticle size were determined by dynamic light scattering using a Malvern Zetasizer Nano ZS (Malvern UK) using a 173° backscatter detection mode. The encapsulation efficiency of lipid nanoparticles were determined using a Quant-it Ribogreen RNA quantification assay kit (Thermo Fisher Scientific, UK) according to the manufacturer's instructions.

[2] = Lipid nanoparticle size and polydispersity by dynamic light scattering (Malvern Zetasizer Nano ZS); settings: LNP of cationic lipid/DSPC/cholesterol/PEG-lipid 50:10:38.5:1.5 with mRNA
Procedure: as §1, §2

[3] = Apparent pKa of LNP formulations, TNS fluorescence assay; settings: LNP cationic lipid/DSPC/cholesterol/DMG-PEG 50/10/38.5/1.5 mol %, pH 3 to 9
Procedure: As reported in literature, the apparent pKa of LNP formulations correlates with the delivery efficiency of LNPs for nucleic acids in vivo. The apparent pKa of each formulation was determined using an assay based on fluorescence of 2-(p-toluidino)-6-napthalene sulfonic acid (TNS). LNP formulations comprising of cationic lipid/DSPC/cholesterol/DMG-PEG (50/10/38.5/1.5 mol %) in PBS were prepared as described above. TNS was prepared as a 300 uM stock solution in distilled water. LNP formulations were diluted to 0.1 mg/ml total lipid in 3 mL of buffered solutions containing 50 mM sodium citrate, 50 mM sodium phosphate, 50 mM sodium borate, and 30 mM sodium chloride where the pH ranged from 3 to 9. An aliquot of the TNS solution was added to give a final concentration of 0.1 mg/ml and following vortex mixing fluorescence intensity was measured at room temperature in a Molecular Devices Spectramax iD3 spectrometer using excitation and mission wavelengths of 325 nm and 435 nm. A sigmoidal best fit analysis was applied to the fluorescence data and the pKa value was measured as the pH giving rise to half-maximal fluorescent intensity.

Encapsulation Efficiency [1] [%] | polydispersity [2] | size (nm) [2] [nm] | Apparant Pka [3] | Compound
36.4 | 0.326 | 230 | – | CCCCCCCCCCCCOCC(CN(C)CCN(CCO)C1CCC1)OC(=O)CCCC (stereo not drawn) [Compound 40]
78.4 | 0.362 | 138.6 | 7.227 | CCCCCCCCCOC(=O)CCOCC(CN(C)CCN(CCO)C1CCC1)OCCC(=O)OCCCCCCCCC (stereo not drawn) [Compound 43]
93.58 | 0.01 | 77.16 | 6.997 | CCCCCCCCCCCCCCCC(=O)OCC(CCCCN(CCO)C1CCC1)COC(=O)CC(CCCCCC)CCCCCCCC (stereo not drawn) [Compound 98]
96.2 | 0.055 | 70.83 | 7.219 | CCCCCCCCC(CCCCCCCC)CNC(=O)CCOC(COCCC(=O)OCC(CCCCCCCC)CCCCCCCC)CN(C)CCN(CCO)C1CCC1 (stereo not drawn) [Compound 61]
83.5 | 0.136 | 82.81 | 5.746 | CCCCCCCCCCCCOCC(CN(C)CCO)OC(=O)CCCCCCCCCCC (stereo not drawn) [Compound 41]
91.81 | 0.013 | 110.30 | 6.789 | CCCCCCCCC(CCCCCC)CC(=O)OCC(CCCCN(CCN(CC)CCO)C1CCC1)COC(=O)CC(CCCCCC)CCCCCCCC (stereo not drawn) [Compound 69]
92.17 | 0.066 | 74.14 | 6.438 | CCCCCCCCCCC(=O)OCC(CCCCN(CCO)C1CCCCC1)COC(=O)CC(CCCCCC)CCCCCCCC (stereo not drawn) [Compound 85]
90.6 | 0.17 | 65.06 | 4.916 | CCCCCCCCCCCCOCC(CN(CCO)CCCCCC(=O)OCC(CCCCCC)CCCCCCCC)OC(C)=O (stereo not drawn) [Compound 18]
88.2 | 0.156 | 102.9 | 7.327 | CCCCCCCCCCCCOCC(O)CN(CCCCCC(=O)OCC(CCCCCC)CCCCCCCC)CCN1CCCCC1 (stereo not drawn) [Compound 8]
91.7 | 0.113 | 79.39 | 6.263 | CCCCCCCCCCCCOCC(CN(CCCCCC(=O)OCCCCCCCCCC)CCN(CCO)C1CCC1)OCCCCCCCC (stereo not drawn) [Compound 48]
91.3 | 0.082 | 82.89 | 6.120 | CCCCCCCCCCCCCCOC(COCCCCCCCCCCCC)CN(CCCCCC(=O)OCCCCCCCCCC)CCN(CCO)C1CCC1 (stereo not drawn) [Compound 47]
96.6 | 0.044 | 72.85 | 6.749 | CCCCCCCCC(CCCCCCCC)CC(=O)OCC(CCCCN(C)CCN(CCO)C1CCC1)COC(=O)CC(CCCCCCCC)CCCCCCCC [Compound 66]
94.6 | 0.2 | 54.52 | 5.083 | CCCCCCCCCCCCOCC(CN(CCO)C1CCC1)OCCCCCC(=O)OCC(CCCCCC)CCCCCCCC (stereo not drawn) [Compound 4]
91.83 | 0.116 | 130.6 | 6.444 | CCCCCCCCC(CCCCCCCC)CC(=O)OCC(CCCCN(CC)CCN(CCO)C1CCC1)COC(=O)CC(CCCCCCCC)CCCCCCCC [Compound 67]
89.5 | 0.034 | 75.43 | 6.851 | CCCCCCCCC(CCCCCCCC)COC(=O)CCOCC(CN(C)CCN(CCO)C1CCC1)OCCC(=O)OCC(CCCCCCCC)CCCCCCCC (stereo not drawn) [Compound 55]
89.8 | 0.060 | 74.31 | – | CCCCCCCCCCCCOCC(CN(CCCCCC)CCN(CCO)C1CCC1)OCCCCCCCCCCCC (stereo not drawn) [Compound 16]
92.81 | 0.03 | 73.58 | – | CCCCCCCCCCCCCCCC(=O)OCC(CCCCN(CCO)C1CCCCC1)COC(=O)CC(CCCCCC)CCCCCCCC (stereo not drawn) [Compound 86]
90.25 | 0.051 | 70.85 | – | CCCCCCCCCCC(=O)OCC(CCCCN(CCO)C1CCCCCC1)COC(=O)CC(CCCCCC)CCCCCCCC (stereo not drawn) [Compound 92]
96.1 | 0.049 | 94.89 | – | CCCCCCC(CCCCCC)COC(=O)CCCCCN(CCN1CCC(O)C1)CC(COC(=O)CCCCC)OC(=O)CCCCC (stereo not drawn) [Compound 59]
95.22 | 0.055 | 81.89 | – | CCCCCCCCC(CCCCCCCC)COC(=O)CCOCC(CN(C)CCN(CCO)C1CCCCC1)OCCC(=O)OCC(CCCCCCCC)CCCCCCCC (stereo not drawn) [Compound 72]
93.66 | 0.067 | 61.18 | – | CCCCCCCCC(CCCCCC)COC(=O)CCOCC(CN(CCCCCC)CCN(CCO)C1CCCCCC1)OCCC(=O)OCC(CCCCCC)CCCCCCCC (stereo not drawn) [Compound 107]
92.04 | 0.097 | 47.87 | – | CCCCCCCCCC(CCCCC)COC(=O)CCOCC(CN(CCO)C1CCC1)OCCC(=O)OCC(CCCCCC)CCCCCCCC (stereo not drawn) [Compound 108]
94.8 | 0.356 | 84.22 | – | CCCCCCCCCCCCOCC(O)CN(CCCCCC(=O)OCC(CCCCCC)CCCCCCCC)CCN1CCCC1 (stereo not drawn) [Compound 10]
92.8 | 0.124 | 105.6 | – | CCCCCCCCCCCCOCC(CN(CCO)C1CCC1)OC(=O)CCCCC (stereo not drawn) [Compound 3]
90.8 | 0.144 | 70.97 | – | CCCCCCCCCCCCOCC(CN(CCCCCC(=O)OCC(CCCCCC)CCCCCCCC)CCN1CCCCC1)OC(C)=O (stereo not drawn) [Compound 9]
91.6 | 0.075 | 73.8 | – | CCCCC/C=C\C/C=C\CCCCCCCC(=O)OCC(CN(C)CCN(CCO)C1CCC1)OC(=O)CCCCCCC/C=C\C/C=C\CCCCC (stereo not drawn) [Compound 64]

Compound | Encapsulation Efficiency [1] [%] | polydispersity [2] | size (nm) [2] [nm] | Apparant Pka [3]
CCCCCCCCCCCCOCC(CN(CCCCCC(=O)OCC(CCCCCC)CCCCCCCC)CCN(CCO)C1CCC1)OCCCCCCCCCCCC (stereo not drawn) [Compound 28] | 86.9 | 0.2 | 54.96 | 5.905
CCCCCCCCC(CCCCCCCC)CNC(=O)CCOCC(CN(C)CCN(CCO)C1CCCCC1)OCCC(=O)NCC(CCCCCCCC)CCCCCCCC (stereo not drawn) [Compound 52] | 96.5 | 0.14 | 66.03 | –
CCCCCCCCCCCCOCC(CN(CCCCCC(=O)OCC(CCCCCC)CCCCCCCC)CCN(CCO)C1CCCCC1)OCCCCCC (stereo not drawn) [Compound 25] | 94.70 | 0.112 | 58.01 | –
CCCCCCCCC(CCCCCCCC)CNC(=O)CCOCC(CN(C)CCN(CCO)C1CCCCCC1)OCCC(=O)NCC(CCCCCCCC)CCCCCCCC (stereo not drawn) [Compound 58] | 97.3 | 0.032 | 56.37 | –
